Measured values: patent US20120308554A1, “VEGF-D/VEGFR2/3-MEDIATED REGULATION OF DENDRITES” (UNIVERSITAT HEIDELBERG, priority 2011, published 2012)

Assays:
hippocampal neurons = format: cell-based, mice; settings: hippocampal neurons infected with rAAV
Text: E: Analysis of apoptosis of hippocampal cultures uninfected or infected with the indicated rAAVs. Values are expressed as percentage of the total number of cells analyzed.

[1] = system: VEGFD, VEGF, VEGFC and VEGFR3; assay: qRT-PCR analysis of shRNA knock-down of VEGF family members; format: cell-based, mice; settings: hippocampal neurons infected with rAAV
Procedure: Total RNA was isolated at DIV10 to DIV13 from hippocampal primary neuron cultures or isolated brain tissues with Rneasy Mini Kit (Qiagen, Hilden, Germany) including an optional Dnase I treatment at room temperature for 15 min according to manufacturer's instructions (Qiagen). 1.2 μg of extracted RNA was reverse transcribed into first strand cDNA using High Capacity cDNA Reverse Transcription kit (Applied Biosystems, Foster City, Calif.). Quantitative reverse transcriptase PCR (qRT-PCR) was done on an ABI7300 thermal cycler using Universal qRT-PCR master mix with TaqMan Gene Expression Assays for the indicated genes (Applied Biosystems). The following TaqMan Gene Expression Assays were used in this study: Gusb (Mm00446953_m1), cFos (Mm00487425_m1), VEGFD (Mm00438965_m1), VEGFC (Mm01202432_m1), VEGF (Mm01281449_m1), VEGFR3 (Mm01292618_m1), beta-actin (Mm00607939_s1), beta-2 microglobulin (Mm00437762_m1), CBP (Mm01342435_m1), p38 MAPK alpha (Mm00442497_m1), p38 MAPK beta (Mm00440955_m1). Expression of target genes was normalized against the expression of Gusb as endogenous control gene. Data were derived from at least 5 independent experiments. For expression of shRNAs, an rAAV vector containing the U6 promoter for shRNA expression and a CaMKII promoter driving mCherry expression was used. Three different sequences were obtained from Open Biosystems ([…] 2 and […] 3), cloned and tested for silencing efficiency. […] As control, a scramble version of this sequence ([…] ID NO: 2) and the vector carrying only the mCherry ([…]) were used. Shp38alpha [NT] ID NO: 3), shp38beta [NT] ID NO: 4), […] ID NO: 5), […] ID NO: 6) and […] ID NO: 7; sequence obtained from Open Biosystems www.openbiosystems.com) were also cloned into the same vector. CBP expression level was knocked down using a pool of four short interfering RNAs (siRNAs) targeting mouse CBP (Accell siRNA SMARTpool; Thermo Scientific Dharmacon). The SMARTpool is a group of four siRNAs that have been screened to reduce a variety of potential off-target effects including the inclusion of miRNA (microRNA)-like seed motifs. Silencing of GAPDH was measured using Accell mouse GAPDH as a positive control, and as a negative control, a non-targeting Accell mouse siRNA pool was used. In addition, a fluorescently labeled non-targeting Accell mouse siRNA was also used to evaluate penetration efficiency in hippocampal neurons via immunocytochemistry. Briefly, 500 nM siRNAs were supplemented in the serum-free culturing medium at DIV8, and mRNA levels were analyzed at DIV13.

hippocampal cultures = assay: MEA recordings of spontaneous network activity; format: cell-based, mice; settings: infected cultures versus rAAV-shSCR or rAAV-emptymC
Procedure: MEA recordings were done as known in the art. From DIV7 to DIV13, recordings of spontaneous network activity were acquired for 5 min once per day.

CA1 pyramidal neurons = assay: Golgi staining-based morphometric analysis of CA1 neurons after stereotaxic rAAV delivery; format: in vivo, C57BL/6 mice; settings: CA1 basal dendrites, 2.5 weeks after viral gene delivery
Procedure: rAAVs were delivered by stereotaxic injection into the right dorsal hippocampus of 2 months old male C57BL/6 mice. For the Golgi staining-based morphometric analysis, viral particles were unilaterally injected over a period of 20 min at the following coordinates relative to Bregma: anteroposterior, −2.1 mm; mediolateral, −1.4 mm; dorsoventral, −1.4 to −1.8 mm from the skull surface. For behavior experiments mice were injected bilaterally.
For 3D Sholl Analysis, total dendritic length and spine morphology were calculated using Object-Image freeware software with a specific set of macros (written by Dr. E. Ruthazer, McGill University, Quebec). Briefly, a z-Stack acquisition was imported, calibrated in Object-Image and manually traced. Total dendritic length was then computed. For Sholl analysis, the shell interval was set at 5 μm. All analyses were performed blind. In all in vitro experiments, for each condition, a minimum of 12 neurons from three independent preparations was analyzed. For the Golgi staining quantifications of 20 neurons for each condition from 4 different injected animals per viral construct were traced and analyzed.
Golgi impregnation was performed using a Rapid Golgi Stain Kit (FD Neuro Technologies) according to the manufacturer's protocol. […]

## shVEGFD: shRNA targeting mouse VEGFD mRNA (GGGCTTCAGGAGCGAACAT; SEQ ID NO: 1), expressed from rAAV vector or plasmid with U6 promoter
Hippocampal neurons
  cell death: no increase in cell death
[1]
  mRNA levels of respective targets: reduced mRNA levels of their respective targets
Hippocampal cultures
  spike frequencies: reduced
CA1 pyramidal neurons
  total length of dendrites and their complexity in vivo: reduced both the total length of dendrites and their complexity
